The subject of the test is Plasmodium berghei. The experiment in a line: Luciferase/luciferin-expressing antifolate-resistant parasites were used to infect a culture of HepG2 cells that were pre-incubated with compounds. Infected hepatocytes emit light due to the luciferase reaction. Assay results are presented as the percent inhibition of light emission compared to control. […]. The format is functional. To be noted: sporozoite; for IC90: read-out: LUCIFERASE INFECTION ASSAY - IC90.

The mark [1] stands for this setting: read-out: LUCIFERASE INFECTION ASSAY - IC50.

Turning to `Cn1c(Nc2cccc(C(F)(F)F)c2)nc2cnc(-c3ccoc3)cc21`, the IC90 (usually the concentration at which the effect reaches the 90% level) was > 10 µM. Moreover, the IC50 (commonly the midpoint of a concentration-inhibition curve) under setting [1] is > 10 µM.
For the compound `C=CCSc1nnc(NC(=O)C2Cc3ccccc3CN2S(=O)(=O)c2ccccc2F)s1` (centres undefined), the IC90 is > 10 µM. For the same compound, the IC50 (FFLUC_HILL_SLOPE 1.45, FFLUC_R_SQUARED 0.33, PBLUC_HILL_SLOPE 5.35, PBLUC_R_SQUARED 0.362, read-out: LUCIFERASE INFECTION ASSAY - IC50) is 7.22 µM.
Take `COc1ccc(CN2CCN(C(=O)c3ccc(-n4cccn4)cc3)CC2)cc1F`: the IC90 is > 10 µM. Further, the IC50 (HEPG2TOX_HILL_SLOPE 2.97, HEPG2TOX_R_SQUARED 0.899, PBLUC_HILL_SLOPE 2, PBLUC_R_SQUARED 0.568, read-out: LUCIFERASE INFECTION ASSAY - IC50) worked out at 3.44 µM.
Take `O=C(NCc1ccc(-n2cccn2)cc1)c1[nH]nc(C2CC2)c1Br`: the IC90 was found to be 1.52 µM. Under setting [1], the IC50 came out at 1.27 µM.
For `O=C(/C=C/c1ccco1)Nc1ccc(Cl)cc1Cl`, the IC90 was 11.1 µM. In addition, under setting [1], the IC50 was determined as 9.77 µM.
In the case of `Cn1c(-c2ccccc2)c(C(Nc2ccccn2)c2ccccc2O)c2ccccc21` (centres undefined), the IC90 was > 10 µM. In addition, the IC50 (FFLUC_HILL_SLOPE 22.7, FFLUC_R_SQUARED 0.0514, read-out: LUCIFERASE INFECTION ASSAY - IC50) is > 10 µM.
For the compound `COc1cccc(NC(=O)c2cccc(C3(CNCc4ccccc4F)CC3)c2)c1`, the IC90 was > 10 µM. Further, under setting [1], the IC50 was > 10 µM.
Turning to `CCCCNC(=O)c1c(NC(=O)c2ccccc2C(F)(F)F)nc2ccccn12`, the IC90 worked out at 8.11 µM. For the same compound, the IC50 (HEPG2TOX_HILL_SLOPE 6.6, HEPG2TOX_R_SQUARED 0.306, PBLUC_HILL_SLOPE 21.5, PBLUC_R_SQUARED 0.838, read-out: LUCIFERASE INFECTION ASSAY - IC50) is 7.33 µM.
Regarding `Cc1cccc(N2CCN(C(=O)c3cccc(OCc4c(C)noc4C)c3)CC2)c1C`, the IC90 is > 10 µM. For the same compound, the IC50 (HEPG2TOX_HILL_SLOPE 2.27, HEPG2TOX_R_SQUARED 0.832, PBLUC_HILL_SLOPE 9.75, PBLUC_R_SQUARED 0.237, read-out: LUCIFERASE INFECTION ASSAY - IC50) was found to be 9.51 µM.
Turning to `Cn1c(Sc2sccc2[N+](=O)[O-])nnc1C(F)(F)F`, the IC90 is > 10.6 µM. The IC50 under setting [1] is > 10.6 µM.
As for `COc1ccc(Nc2ccnc3cc(Cl)ccc23)cc1OC`, the IC90 was > 10 µM. The IC50 under setting [1] amounted to 7.03 µM.
For `Cc1noc(N)c1C(=O)OCc1cccc2cccnc12`, the IC90 was > 10 µM. For the same compound, under “HEPG2TOX_HILL_SLOPE 10.3, HEPG2TOX_R_SQUARED 0.154, PBLUC_HILL_SLOPE 14, PBLUC_R_SQUARED 0.377, read-out: LUCIFERASE INFECTION ASSAY - IC50”, the IC50 was 9.17 µM.
With `Cn1c(CSCc2nc(-c3ccc(Cl)cc3)cs2)nnc1SCC(=O)Nc1ccc(Cl)cc1`, the IC90 was > 6.15 µM. The IC50 (HEPG2TOX_HILL_SLOPE 16.7, HEPG2TOX_R_SQUARED 0.854, PBLUC_HILL_SLOPE 1.35, PBLUC_R_SQUARED 0.574, read-out: LUCIFERASE INFECTION ASSAY - IC50) is > 6.15 µM.
On to `COc1cc(-c2nc3ccc(NC(=O)COc4ccccc4)cn3n2)cc(OC)c1OC`, for which the IC90 was > 10 µM. For the same compound, the concentration for half-maximal inhibition (IC50) (PBLUC_HILL_SLOPE 1.9, PBLUC_R_SQUARED 0.239, read-out: LUCIFERASE INFECTION ASSAY - IC50) worked out at 5.59 µM.
In the case of `COc1ccc2cc(CN(C)C(C)C(=O)NCc3ccc(F)cc3)ccc2c1` (centres undefined), the IC90 is > 10 µM. The IC50 (HEPG2TOX_HILL_SLOPE 14.9, HEPG2TOX_R_SQUARED 0.671, read-out: LUCIFERASE INFECTION ASSAY - IC50) is > 10 µM.
In the case of `COC(=O)c1sc(S(C)(=O)=O)c(C#N)c1-c1cccs1`, the IC90 is 5.13 µM. For the same compound, the IC50 (HEPG2TOX_HILL_SLOPE 11.8, HEPG2TOX_R_SQUARED 0.984, PBLUC_HILL_SLOPE 123, PBLUC_R_SQUARED 0.486, read-out: LUCIFERASE INFECTION ASSAY - IC50) came to 5.04 µM.
Turning to `Cc1ccc(-n2ncc(C(=O)Nc3ccncc3)c2C2CC2)cc1Cl`, the IC90 amounted to 7.69 µM. In addition, the IC50 (HEPG2TOX_HILL_SLOPE 0.617, HEPG2TOX_R_SQUARED 0.925, PBLUC_HILL_SLOPE 1.2, PBLUC_R_SQUARED 0.513, read-out: LUCIFERASE INFECTION ASSAY - IC50) turned out to be 1.23 µM.
Turning to `COC(=O)c1sc(N)c(C(=O)OC)c1COC(=O)/C=C/c1ccc(OC(F)F)cc1`, the IC90 is > 10 µM. Also, under “FFLUC_HILL_SLOPE 15.7, FFLUC_R_SQUARED 0.211, read-out: LUCIFERASE INFECTION ASSAY - IC50”, the IC50 is > 10 µM.
`O=C(Nc1ncccc1O)c1ccc(Cn2cccn2)cc1`: the 90% effect concentration (IC90) was 3.1 µM. Moreover, under “PBLUC_HILL_SLOPE 2.35, PBLUC_R_SQUARED 0.554, read-out: LUCIFERASE INFECTION ASSAY - IC50”, the IC50 was 1.22 µM.
Turning to `O=C(CN1C(=O)CCOc2ccccc21)N1CCN(C(=O)C2COc3ccccc3O2)CC1` (centres undefined), the IC90 is 8.99 µM. In addition, the IC50 under setting [1] came out at 3.76 µM.
`CCOc1ccc(NC(=S)N/N=C2/C(=O)Nc3c(Cl)cc(Cl)cc32)cc1`: the concentration for an effect of 90% (IC90) is 1.16 µM. In addition, the IC50 (FFLUC_HILL_SLOPE 3.63, FFLUC_R_SQUARED 0.721, HEPG2TOX_HILL_SLOPE 1.01, HEPG2TOX_R_SQUARED 0.763, PBLUC_HILL_SLOPE 15.5, PBLUC_R_SQUARED 0.598, read-out: LUCIFERASE INFECTION ASSAY - IC50) worked out at 1 µM.
Take `CCc1cccc(CC)c1N1C(=O)/C(=C\c2ccc(C(C)(C)C)cc2)N(C)C1=S`: the 90% effect concentration (IC90) is > 10 µM. The IC50 (FFLUC_HILL_SLOPE 0.556, FFLUC_R_SQUARED 0.412, PBLUC_HILL_SLOPE 2.98, PBLUC_R_SQUARED 0.687, read-out: LUCIFERASE INFECTION ASSAY - IC50) was 5.42 µM.
Turning to `O=C(N/N=C/c1ccc(F)cc1)c1ccc[n+]([O-])c1`, the IC90 is > 10 µM. Moreover, where the note is “PBLUC_HILL_SLOPE 1.11, PBLUC_R_SQUARED 0.152, read-out: LUCIFERASE INFECTION ASSAY - IC50”, the IC50 came out at 5.8 µM.
As for `CSc1ncc(Nc2nc(-c3ccccc3)c(-c3ccccc3)s2)cn1`, the IC90 came out at 4.18 µM. Further, the IC50 (PBLUC_HILL_SLOPE 14.9, PBLUC_R_SQUARED 0.41, read-out: LUCIFERASE INFECTION ASSAY - IC50) was 3.61 µM.
In the case of `O=C(CC1(C(F)(F)F)OCCO1)Nc1ccc(C(OC(=O)c2ccc(F)cc2)(C(F)(F)F)C(F)(F)F)cc1`, the IC90 is > 10 µM. Besides, under setting [1], the half-maximal inhibitory concentration (IC50) is > 10 µM.
As for `O=c1c(Cl)c(Cl)cnn1-c1ccc(Cl)cc1Cl`, the IC90 is 3.5 µM. Moreover, the IC50 (HEPG2TOX_HILL_SLOPE 16.8, 1.83, HEPG2TOX_R_SQUARED 0.839, 0.915, PBLUC_HILL_SLOPE 1.48, 10.9, PBLUC_R_SQUARED 0.768, 0.409, read-out: LUCIFERASE INFECTION ASSAY - IC50) stood at 3.64 µM.
On to `COc1cc(NC(=O)Nc2ccc3nc(-c4ccoc4)nn3c2)cc(OC)c1OC`, for which the IC90 is > 10 µM. Moreover, under setting [1], the IC50 is > 10 µM.
Regarding `Cc1onc(-c2ccc(Cl)cc2Cl)c1-c1csc(Nc2c(Cl)cccc2Cl)n1`, the IC90 was > 7 µM. Further, the IC50 (PBLUC_HILL_SLOPE 16.2, PBLUC_R_SQUARED 0.0753, read-out: LUCIFERASE INFECTION ASSAY - IC50) stood at 6.45 µM.
Consider `CCN(CC)S(=O)(=O)c1cccc(-c2nnc(SCC(=O)N3CCC(c4ccccc4)=N3)n2Cc2ccccc2)c1`, for which the IC90 is > 10 µM. Besides, the half-inhibitory concentration (IC50) (FFLUC_HILL_SLOPE 11.4, FFLUC_R_SQUARED 0.285, PBLUC_HILL_SLOPE 0.735, PBLUC_R_SQUARED 0.117, read-out: LUCIFERASE INFECTION ASSAY - IC50) is > 10 µM.
Regarding `Cc1ccc(-n2c(C)cc(C(=O)CNCc3ccccc3)c2C)cc1`, the IC90 is > 10 µM. Where the note is “PBLUC_HILL_SLOPE 3.04, PBLUC_R_SQUARED 0.101, read-out: LUCIFERASE INFECTION ASSAY - IC50”, the IC50 is 9.63 µM.
As for `OC(COc1ccc(OC(F)(F)F)cc1)CN1CCN(c2nc3ccc(Cl)cc3s2)CC1` (centres undefined), the IC90 is > 6.76 µM. Further, for the setting “HEPG2TOX_HILL_SLOPE 3.53, HEPG2TOX_R_SQUARED 0.823, PBLUC_HILL_SLOPE 2.94, PBLUC_R_SQUARED 0.35, read-out: LUCIFERASE INFECTION ASSAY - IC50”, the IC50 was found to be 4.19 µM.
For `C=CCN(c1ccc(C(=O)Nc2ccc(C(F)(F)F)cc2)cc1)S(C)(=O)=O`, the IC90 was 7.12 µM. For the same compound, the IC50 (HEPG2TOX_HILL_SLOPE 1.13, HEPG2TOX_R_SQUARED 0.916, PBLUC_HILL_SLOPE 2.09, PBLUC_R_SQUARED 0.336, read-out: LUCIFERASE INFECTION ASSAY - IC50) was determined as 2.49 µM.
On to `Cc1ccc(C2(C(F)(F)F)NC(=O)c3ccc(OC(C)C)cc3O2)cc1` (centres undefined), for which the IC90 was > 10 µM. Moreover, the concentration for half-maximal inhibition (IC50) under setting [1] came out at 3.99 µM.
In the case of `Cc1ccc(C(=O)Nc2nc(CC34CC5CC(CC(C5)C3)C4)cs2)s1`, the IC90 is > 10 µM. Further, the IC50 (PBLUC_HILL_SLOPE 2.85, PBLUC_R_SQUARED 0.204, read-out: LUCIFERASE INFECTION ASSAY - IC50) is 6.66 µM.
In the case of `COc1ccc2c(c1)CCCC21NC(=O)N(Cc2nc3ccccc3s2)C1=O` (centres undefined), the IC90 was 8.43 µM. In addition, for the setting “PBLUC_HILL_SLOPE 1.51, PBLUC_R_SQUARED 0.684, read-out: LUCIFERASE INFECTION ASSAY - IC50”, the IC50 was 1.97 µM.
Take `CN(Cc1ccccc1Cl)C(=O)c1ccc(NC(=O)c2ccco2)cc1`: the IC90 is > 10 µM. The IC50 (PBLUC_HILL_SLOPE 1.69, PBLUC_R_SQUARED 0.585, read-out: LUCIFERASE INFECTION ASSAY - IC50) amounted to 7.96 µM.
With `O=C1NC(c2ccc(N3CCCCC3)cc2)Nc2ccccc21` (centres undefined), the IC90 was determined as 0.743 µM. Besides, the IC50 under setting [1] worked out at 0.0973 µM.

(Values after ChEMBL document CHEMBL4483862, “Open-source discovery of chemical leads for next-generation chemoprotective antimalarials” (2018).)
